Test results reported in PubChem BioAssay (NCI).
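48-hour exposure; five concentrations; linearly interpolated endpoints. GI50: concentration for 50% inhibition of growth. TGI is the concentration that stops growth completely.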

What was measured:
Experiment in all cases: NCI tumour cell line growth inhibition, 48 h
[1] = tested on: TK-10 renal
[2] = tested on: SNB-75 CNS
[3] = tested on: OVCAR-4 ovarian
[4] = tested on: SK-MEL-5 melanoma
[5] = tested on: SF-295 CNS
[6] = tested on: HCT-116 colon
[7] = tested on: SNB-19 CNS
[8] = tested on: CAKI-1 renal
[9] = tested on: UO-31 renal
[10] = tested on: 786-0 renal

Row | Structure (SMILES) | GI50 [1] [µM] | TGI [1] [µM] | GI50 [2] [µM] | TGI [2] [µM] | GI50 [3] [µM] | TGI [3] [µM] | GI50 [4] [µM] | TGI [4] [µM] | GI50 [5] [µM] | TGI [5] [µM] | GI50 [6] [µM] | TGI [6] [µM] | GI50 [7] [µM] | TGI [7] [µM] | GI50 [8] [µM] | TGI [8] [µM] | GI50 [9] [µM] | TGI [9] [µM] | GI50 [10] [µM] | TGI [10] [µM]
1 | CCSc1nc(N)c(C#N)c(-c2ccco2)c1C#N | 21.3 | 78.1 | > 100 | > 100 | > 100 | > 100 | 33.3 | > 100 | 47.7 | > 100 | 26.8 | > 100 | 51.2 | > 100 | 13.7 | 67.6 | 56.1 | > 100 | 39.6 | > 100
2 | O=S(=O)(NC1=NCCN1C(=S)SN1CCn2c1nsc2=S)c1cccc(OC(F)(F)F)c1 | 13.8 | 29.7 | 16.2 | 38.9 | 12.5 | 27.9 | 16.6 | 32.8 | 23.6 | 63.3 | 10.2 | 21.9 | 18 | 45.4 | 17.8 | 43.5 | 14.1 | 28.1 | 12 | 27.1
3 | CCN(CC)CCCC(C)Nc1c(-c2ccccc2)cnc2cc(Cl)ccc12 (stereo not given) | 6.93 | 17.5 | 13.7 | 45.3 | 10.3 | 36.4 | 1.74 | 3.64 | 2.78 | 9 | 3.72 | 15.2 | 16.6 | 57.7 | 2.12 | 10.9 | 1.12 | 8.83 | 6.38 | 20.6
4 | Nc1n[nH]c(N)c1N=Nc1ccc(O)cc1 | 25.7 | 70.4 | 18.5 | 41.6 | 19 | 74.7 | 13.9 | 30.9 | 23.3 | 82.5 | 18.9 | 89.9 | 29.8 | > 100 | 14.7 | 63.9 | 13.7 | 66.3 | 26.3 | > 100
5 | Cc1cccc2c(Nc3ccc(NS(C)(=O)=O)cc3)c3ccc([N+](=O)[O-])cc3nc12 | 3.16 | 17.5 | 1.12 | 5.93 | 1.9 | 6.38 | 0.487 | 1.99 | 0.29 | 7.21 | 0.927 | 5.24 | 0.456 | 14.7 | 2.43 | 24 | 1.77 | 13 | 0.738 | 4.45
6 | N#CC(C#N)=C(N)/C(C#N)=C/c1ccc2[nH]ccc2c1 | – | > 100 | – | > 100 | – | > 100 | – | > 100 | – | > 100 | – | > 100 | – | > 100 | – | > 100 | – | > 100 | – | > 100
